{"source": "patent US20240156825A1", "about": "“USE OF SELECTIVE VEGFR2 AND FGFR1 INHIBITORS” (Fountain Therapeutics Inc., priority 2022, published 2024)", "origin": "cited, not measured here", "data": [{"tested_on": "any gene target", "details": "Table 2; lowest reported IC50 to any gene target; read-out: Min IC50_μM; cited from earlier work", "units": {"IC50": "nM"}, "values": [{"molecule": "COc1cc(OC)cc(N(Cc2ccccc2Cl)c2ccc3ncc(-c4cnn(C)c4)nc3c2)c1", "note": "[compound 68208812]", "IC50": 61.7}, {"molecule": "COc1cc(OC)c(C)c(N(CCNC(C)C)c2ccc3ncc(-c4cnn(C)c4)nc3c2)c1", "note": "[compound 134147170]", "IC50": 6.46}, {"molecule": "COc1cc(OC)cc(N(CCNC(C)C)c2ccc3ncc(-c4cnn(C5CCN(C)CC5)c4)nc3c2)c1", "note": "[compound 134142615]", "IC50": 2.95}, {"molecule": "COc1cc(F)cc(N(CCCN2CCCC2)c2ccc3ncc(-c4cn[nH]c4)nc3c2)c1", "note": "[compound 134140310]", "IC50": 1.86}, {"molecule": "CNC1CCN(CCCN(c2cc(OC)cc(OC)c2)c2ccc3ncc(-c4cnn(C)c4)nc3c2)C1", "note": "(stereo not drawn) [compound 134140450]", "IC50": 2.24}, {"molecule": "COc1cc(OC)cc(N(CCNC(C)C)c2ccc3ncc(-c4cn[nH]c4)nc3c2)c1", "note": "[compound 134148952]", "IC50": 3.39}, {"molecule": "COc1cc(OC)cc(N(CCN2CCCCC2C)c2ccc3ncc(-c4cnn(C)c4)nc3c2)c1", "note": "(stereo not drawn) [compound 134146514]", "IC50": 2.51}, {"molecule": "COc1cc(OC)cc(N(CCNC(C)C)c2ccc3ncc(-c4cnn(CC5CCOCC5)c4)nc3c2)c1", "note": "[compound 134141677]", "IC50": 2.19}, {"molecule": "COc1cc(N(CCNC(C)C)c2ccc3ncc(-c4cnn(C)c4)nc3c2)cc2c1OCO2", "note": "[compound 68209505]", "IC50": 2.88}, {"molecule": "COc1cc(OC)cc(N(CCN(Cc2ccc(N)cc2)C(C)C)c2ccc3ncc(-c4cnn(C)c4)nc3c2)c1", "note": "[compound 89447175]", "IC50": 5.89}, {"molecule": "COc1cc(OC)cc(N(CC#Cc2nccc(OC)n2)c2ccc3ncc(-c4cnn(C)c4)nc3c2)c1", "note": "[compound 67467703]", "IC50": 7.41}, {"molecule": "COc1cc(OC)cc(N(CCNC(C)C)c2ccc3ncc(-c4c(C)nn(C)c4C)nc3c2)c1", "note": "[compound 134138098]", "IC50": 10.7}, {"molecule": "COc1cc(OC)cc(N(c2ccc3ncc(-c4cnn(C)c4)nc3c2)C(C)CNC(C)C)c1", "note": "(stereo not drawn) [compound 68208877]", "IC50": 4.9}]}, {"tested_on": "any gene target", "details": "lowest reported IC50 to any gene target; read-out: Min IC50_μM; cited from earlier work", "units": {"IC50": "nM"}, "values": [{"molecule": "COc1cc(OC)cc(N(CCN2CCN(C(=O)C3CC3)CC2)c2ccc3ncc(-c4cnn(C)c4)nc3c2)c1", "note": "[compound 89447346]", "IC50": 7.76}, {"molecule": "CN1CCN(CCCNc2ncc3cc(-c4c(Cl)cccc4Cl)c(NC(=O)NC4CCCCC4)nc3n2)CC1", "note": "[compound 5328158]", "IC50": 31}, {"molecule": "COc1ccc(OC)c(N(CCCN2CCCC2)c2ccc3ncc(-c4cnn(C)c4)nc3c2)c1", "note": "[compound 134157453]", "IC50": 38}, {"molecule": "COC(=O)C1=C(c2ccccc2)c2ccccc2C1=O", "note": "[compound 10015651]", "IC50": 5100}]}, {"tested_on": "any gene target", "details": "next lowest IC50 value to any gene target; Table 3; read-out: Min IC50_μM; cited from earlier work", "units": {"IC50": "nM"}, "values": [{"molecule": "Oc1ccc(-c2cnn3cc(-c4ccc(OCCN5CCOCC5)cc4)cnc23)cc1O", "note": "[compound 52944268]", "IC50": 1}, {"molecule": "CCCNC(=O)Nc1ccc(Oc2ncnc3cc(OC)c(OC)cc23)cc1Cl", "note": "[compound 9549295]", "IC50": 1}]}, {"tested_on": "any gene target", "details": "next lowest IC50 value to any gene target; read-out: Min IC50_μM; cited from earlier work", "units": {"IC50": "nM"}, "values": [{"molecule": "O=C(NC1CCCCC1)c1cc2c(-c3ccccc3)n[nH]c2s1", "note": "[compound 44406074]", "IC50": 11000}, {"molecule": "Cc1cccc(NC(=O)Nc2ccc(-c3csc4ncnc(N)c34)cc2)c1", "note": "[compound 6539985]", "IC50": 2}, {"molecule": "Nc1ncnc2snc(-c3ccc(NC(=O)Nc4cc(C(F)(F)F)ccc4F)cc3)c12", "note": "[compound 44414779]", "IC50": 22}, {"molecule": "O=C(NCc1ccccc1)c1cc2c(-c3ccccc3)n[nH]c2s1", "note": "[compound 11359538]", "IC50": 2000}, {"molecule": "Cc1ccc(Nc2nccc(N(C)c3ccc4c(C)n(C)nc4c3)n2)cc1S(N)(=O)=O", "note": "[compound 10113978]", "IC50": 10}, {"molecule": "COc1cc2ncnc(Nc3ccc(Cl)cc3F)c2cc1OC", "note": "[compound 5329006]", "IC50": 1000}, {"molecule": "COc1ccc(N(C)c2ncnc3occ(C)c23)cc1", "note": "[compound 44555430]", "IC50": 12.3}, {"molecule": "COc1cc2nccc(Oc3ccc(NC(=O)Nc4cc(C)on4)c(Cl)c3)c2cc1OC", "note": "[compound 118737468]", "IC50": 3.26}, {"molecule": "Cc1cccc(NC(=O)Nc2ccc(-c3cncc4c3c(N)nn4C)cc2)c1", "note": "[compound 11588815]", "IC50": 2}, {"molecule": "COC(=O)c1ccc2c(C(=Nc3ccc(N4CCC(CN5CCN(C)CC5)C4=O)cc3)c3ccccc3)c(O)[nH]c2c1", "note": "(stereo not drawn) [compound 136299423]", "IC50": 45}, {"molecule": "COc1cc2nccc(Oc3ccc4c(C(N)=O)cccc4c3)c2cc1C(N)=O", "note": "[compound 11211389]", "IC50": 390}]}]}
